Results as given in patent US20150064109A1, “Quantified differentiation and identification of changes in tissue by enhancing differences in blood flow and metabolic activity” (priority 2013, published 2015).

Legend:
breast tissue [1] = test: Study 1: sestamibi breast imaging, maximal count activity (MCA) with Miraluma, SDD and HDD (B.E.S.T.) in ten women; type: in vivo, human; conditions: for MCA counts, Cancer: breast cancer tissue; for MCA counts, Inflamatory States: inflammatory breast tissue; for tissue differentiation: outcome in words, referring to FIG. 3 and Table 1
Procedure: Two sestamibi imaging studies were conducted. […] The results were also compared with biopsy data. All 10 women in the study had either an abnormality on mammography or a detectable lump on physical examination.
Subjects undergoing breast imaging arrived in the fasting state 15-30 minutes prior to the study. […] The IV was placed in the contralateral arm if there is a specific question regarding a specific breast. Sestamibi was administered intravenously four minutes into the study followed by a 10-20 cc normal saline flush to assure delivery of the isotope into the venous system, with imaging of the breast beginning ten minutes into the study. A SPECT camera was positioned in a stationary (planar) position for each of the images.
Breast imaging began with the patient placed in a prone position on top of a 6-inch foam pad designed to enhance the comfort of the patient while improving breast imaging. Each side of the 6-inch pad had breast inserts held in place by hook and loop-type adhesive strips, which were removed allowing each breast to be positioned through the openings in a dependent manner without breast compression. Planar breast imaging began with the BrQL breast (lateral view of breast in question or the right breast if neither breast was specifically suspected of having an abnormality), then the BrCL breast (lateral view of the breast contralateral to BrQL). Patients were then placed on their back for the anterior (BrAS) image of both breasts. Any areas of special concern, PO BrQ1 (posterior oblique view of 1st breast noted to have abnormal activity on initial views) and PO BrQ2 (posterior oblique view of the other breast if its activity is abnormal) were then imaged.
All images were acquired while the patient was prone, except for the anterior (BrAS) image, which was obtained while the patient was supine.
Breast image acquisition and reconstruction was performed using a Siemens orbiter Single Photon Emission Computed Tomography (SPECT) camera with 75 photomultiplier tubes (PMTs) and a 128 by 128 matrix, available from Siemens Medical Solutions, Malvern, Pa. The images were acquired with the camera head in a stationary (planar) position. The camera, computer and software providing quantification of maximal count activity (MCA) were supplied by NC Systems of Boulder, Colo. A low-energy high-resolution (LEHR) collimator was used providing a resolution of 3.4 mm.
(§1) Subjects arrive in a fasting state 15-30 minutes prior to the study. An 18-20 gauge intravenous catheter was placed either in the right antebrachium, or in the left antebrachium. The IV was placed in the contralateral arm if a specific breast was the breast in question. […] The catheter was flushed with 10-20 cc of normal saline immediately after the HDD had been given to assure introduction of all of the HDD into the venous system. […] Anterior images were obtained with the patient in a supine position.
(§2) An example of the blue-green format is shown in FIG. 2a, juxtaposed with resting images.
Following the image reconstruction and presentation of each breast image, the region of greatest maximal activity (MCA) was determined and “quantified.” MCA is a measure of detected radiation (gamma) emission acquired by the SPECT camera during the imaging process and reflects the amount of isotope present at any given time within the tissue of interest. See Fleming R M, Dooley W C, Boyd L B, Kubovy C, “Breast Enhanced Scintigraphy Testing (B.E.S.T.)—Increased accuracy in detecting breast cancer accomplished by combining breast and cardiac imaging,” 48th Annual Scientific Session of the Society of Nuclear Medicine, Toronto, Ontario, Canada, 26 Jun. 2001, the disclosure of which is incorporated herein by this reference. […] All readings and determination of MCA were determined for each breast prior to any knowledge of clinical, mammographic or pathologic information, which could in any way bias the results.

breast tissue [2] = test: Study 2: B.E.S.T. (HDD-enhanced sestamibi) breast imaging, MCA compared with histopathology in 195 individuals; type: in vivo, human; conditions: mean ± SD; for MCA quantitative counts, Cancer: breast cancer (n=15); for MCA quantitative counts, Atypia (Pre-cancerous): cellular atypia (15 individuals); for MCA quantitative counts, Inflammatory States: inflammatory changes (n=77); for MCA quantitative counts, Normal: normal breast tissue (n=88)
Description: Tissue samples were obtained either through ductoscopy, fine needle aspiration or open biopsy and were interpreted by pathologists without knowledge of the sestamibi image results. Results were interpreted as being normal, inflammatory (including trauma, injury, infection, fibrocystic disease, radiation exposure and subsequent injury), atypia (with increasing order of cellular change progressing from hyperplasia to metaplasia/atypia to ductal carcinoma in situ) and cancer.
In a second study, one hundred and ninety five (195) (4 men, 191 women) individuals were studied using the enhanced (HDD) imaging approach. The study included four men having detectable breast lumps and 191 women, including 58 seeking additional information regarding breast disease concerns, and 133 with breast lumps and/or abnormal mammograms. The results of this study were also compared with biopsy data.
as §1, §2
Following the image reconstruction and presentation of each breast image, the region of greatest maximal activity (MCA) was determined and “quantified.” MCA is a measure of detected radiation (gamma) emission acquired by the SPECT camera during the imaging process and reflects the amount of isotope present at any given time within the tissue of interest. See Fleming R M, Dooley W C, Boyd L B, Kubovy C, “Breast Enhanced Scintigraphy Testing (B.E.S.T.)—Increased accuracy in detecting breast cancer accomplished by combining breast and cardiac imaging,” 48th Annual Scientific Session of the Society of Nuclear Medicine, Toronto, Ontario, Canada, 26 Jun. 2001, the disclosure of which is incorporated herein by this reference. […] All readings and determination of MCA were determined for each breast prior to any knowledge of clinical, mammographic or pathologic information, which could in any way bias the results. These procedures were performed at a recognized Center of Excellence for Nuclear Procedures under the direct supervision of a physician Boarded in Nuclear Imaging.
The outcomes of histopathologic specimens were compared with the MCA derived from sestamibi imaging. Descriptive statistical analysis of the MCAs were determined including mean±standard deviations and confidence intervals (CI) for the mean. Group comparisons were made using two-tailed t-tests to determine statistical differences defined as p-values of ≦0.05. Graphic representation of the means is shown for comparison purposes as well as raw data comparison for the histopathologic categories.

mitochondria = conditions: energy dependent manner; cited from earlier work

Row | SMILES | MCA counts, Cancer (breast tissue [1]; mean ± SD, Study 1) | MCA counts, Cancer (breast tissue [1]; mean ± SD, Study 1, listed as B.E.S.T.©) | MCA counts, Inflamatory States (breast tissue [1]; mean ± SD, Study 1) | MCA counts, Normal (breast tissue [1]; normal breast tissue, mean ± SD, sestamibi 25-30 mCi iv, Study 1) | tissue differentiation (breast tissue [1]; listed as HDD) | MCA quantitative counts, Cancer (breast tissue [2]; listed as B.E.S.T. ©) | MCA quantitative counts, Cancer (breast tissue [2]; listed as B.E.S.T.©) | MCA quantitative counts, Atypia (Pre-cancerous) (breast tissue [2]; listed as B.E.S.T. ©) | MCA quantitative counts, Atypia (Pre-cancerous) (breast tissue [2]; listed as B.E.S.T.©) | MCA quantitative counts, Inflammatory States (breast tissue [2]; listed as B.E.S.T. ©) | MCA quantitative counts, Inflammatory States (breast tissue [2]; listed as B.E.S.T.©) | MCA quantitative counts, Normal (breast tissue [2]; listed as B.E.S.T. ©) | MCA quantitative counts, Normal (breast tissue [2]; listed as B.E.S.T.©) | tissue differentiation (breast tissue [1]) | sestamibi taken up by mitochondria (mitochondria)
1 | OCCN(CCO)c1nc(N2CCCCC2)c2nc(N(CCO)CCO)nc(N3CCCCC3)c2n1 [HDD/B.E.S.T. ©, dipyridamole] | 442.0 ± 5.7 counts | 442.0±5.7 counts | 228.8 ± 24.0 counts | 125.5 ± 31.5 counts | statistically significant at differentiating tissue types | 445.3 ± 83.3 counts | 445.3±83.3 counts | 307.7 ± 29.3 counts | 307.7±29.3 counts | 218.0 ± 40.3 counts | 218.0±40.3 counts | 145 ± 29.1 counts | 145.0±29.1 counts | – | –
2 | OCCN(CCO)c1nc(N2CCCCC2)c2nc(N(CCO)CCO)nc(N3CCCCC3)c2n1 [SDD, dipyridamole] | 285.8 ± 17.0 counts | – | 183.5 ± 19.0 counts | – | – | – | – | – | – | – | – | – | – | useless in tissue differentiation | –
3 | [99Tc+].[C-]#[N+]CC(C)(C)OC.[C-]#[N+]CC(C)(C)OC.[C-]#[N+]CC(C)(C)OC.[C-]#[N+]CC(C)(C)OC.[C-]#[N+]CC(C)(C)OC.[C-]#[N+]CC(C)(C)OC [sestamibi, Technetium-99m hexakis 2-methoxyisobutylisonitrile] | – | – | – | – | – | – | – | – | – | – | – | – | – | – | over 90%
